Laboratory results reported in the supplement of paper PMC11821682.

Assays:
Danio rerio embryo [1] = test: BMC10 mortality 24-120 hpf; higher = less toxic
Danio rerio embryo [2] = test: LEL larval photomotor response dark phase 120 hpf
Danio rerio embryo [3] = test: LEL embryonic photomotor response 24 hpf
Danio rerio embryo [4] = test: BMC10 any morphological effect or mortality at 120 hpf; higher = less toxic
HL-60 = test: Cell Health Index (toxicity pseudo-probability over dose series) (index 0-1); higher = more cytotoxic / cell stress;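 further: HL-60 cells exposed 4 h at 37 °C to ten threefold dilutions spanning 5 nM to 100 µM, multiparametric flow cytometry features scored by machine-learning classification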

Row | SMILES | BMC10 mortality 24-120 hpf (Danio rerio embryo [1]) | LEL larval photomotor response dark phase 120 hpf (Danio rerio embryo [2]) | LEL embryonic photomotor response 24 hpf (Danio rerio embryo [3]) | BMC10 any morphological effect or mortality (Danio rerio embryo [4]) | Cell Health Index (HL-60)
1 | CC1(C)CC[C@]2(C(=O)O)CC[C@]3(C)C(=CC[C@@H]4[C@@]5(C)CC[C@H](O)C(C)(C)[C@@H]5CC[C@]43C)[C@@H]2C1 [Oleanolic acid] | 8.42 µM | > 100 µM | > 100 µM | 3.43 µM | 0.354
2 | COc1c(O)cc2oc(-c3ccccc3)cc(=O)c2c1O [Oroxylin A] | 64.9 µM | > 100 µM | > 100 µM | 27.2 µM | 0.234
3 | O=C1C=CC2=CC=C(OC)C(C/C=C(C)\C)=C2O1 [Osthole] | 8.94 µM | > 100 µM | 3.7 µM | 3.1 µM | 0.355
4 | Cc1ccc2c(c1)c1c3n2CCNC3CCC1 (stereo not given) [Pirlindole] | 12 µM | > 100 µM | 33.3 µM | 5.42 µM | 0.298
5 | CCOC(=O)c1ccc(OCCC2CCN(c3ccc(C)nn3)CC2)cc1 [Pirodavir] | 1.43 µM | > 100 µM | 3.7 µM | 2.02 µM | 0.528
6 | Cc1cc(CCCOc2c(C)cc(-c3noc(C(F)(F)F)n3)cc2C)on1 [Pleconaril] | 6.8 µM | > 100 µM | 0.41 µM | 1.15 µM | 0.48
7 | CCc1nc(N)nc(N)c1-c1ccc(Cl)cc1 [Pyrimethamine] | 30 µM | > 100 µM | 100 µM | 3.56 µM | 0.324
8 | COc1ccc2nc3cc(Cl)ccc3c(Nc3cc(CN4CCCC4)c(O)c(CN4CCCC4)c3)c2n1.O=P(O)(O)O.O=P(O)(O)O.O=P(O)(O)O.O=P(O)(O)O [Pyronaridine] | 3.65 µM | > 100 µM | 3.7 µM | 1.18 µM | 0.929
9 | COc1ccccc1NC(=O)c1ccccc1Sc1ccc([N+](=O)[O-])cc1 [RN-18] | 11.8 µM | > 100 µM | 11.1 µM | 10 µM | 0.491
10 | O=C(Nc1cc(C(F)(F)F)ccc1N1CCCCC1)c1ccncc1 [SRPIN340] | 10.3 µM | > 100 µM | 33.3 µM | 0.68 µM | 0.799
11 | C[C@H]1O[C@@H](O[C@H]2CC[C@@]3(C)[C@@H](CC[C@]4(C)[C@@H]3C=C[C@]35OC[C@@]6(CCC(C)(C)C[C@H]63)[C@@H](O)C[C@]54C)[C@]2(C)CO)[C@H](O)[C@@H](O[C@@H]2O[C@H](CO)[C@@H](O)[C@H](O)[C@H]2O)[C@H]1O [Saikosaponin A] | 1.46 µM | > 100 µM | > 100 µM | > 100 µM | 0.959
12 | CN1CCN(CCOc2cc(OC3CCOCC3)c3c(Nc4c(Cl)ccc5c4OCO5)ncnc3c2)CC1 [Saracatinib] | 45.7 µM | > 100 µM | 100 µM | 15.5 µM | 0.695
13 | COc1cc2c(c(OC)c1OC)-c1c(cc(OC)c(OC)c1OC)C[C@H](C)[C@H](C)C2 [Schisandrin A] | 3.4 µM | > 100 µM | 0.015 µM | 3.78 µM | 0.661
14 | OC1=C2C(C(C=C([C@@](O)([H])C/C=C(C)\C)C2=O)=O)=C(O)C=C1 [Shikonin] | 1.73 µM | > 100 µM | 3.7 µM | 1.08 µM | 0.884
15 | COc1ccc2c(O[C@@H]3C[C@H]4C(=O)N[C@]5(C(=O)NS(=O)(=O)C6CC6)C[C@H]5/C=C\CCCCN(C)C(=O)[C@@H]4C3)cc(-c3nc(C(C)C)cs3)nc2c1C.[Na] [Simeprevir] | 5.01 µM | > 100 µM | > 100 µM | 3.6 µM | 0.903
16 | Fc1ccc(CNc2ncnc3ccc(F)cc23)cc1 [Spautin-1] | 1.17 µM | 1.23 µM | 3.7 µM | 0.511 µM | 0.772
17 | COc1ccc(CC(C)C(C)Cc2ccc(OC)c(OC)c2)cc1OC (stereo not given) [Terameprocol] | 24 µM | > 100 µM | 3.7 µM | 3.12 µM | 0.506
18 | CCN(CC)CCOc1ccc2c(c1)C(=O)c1cc(OCCN(CC)CC)ccc1-2.Cl.Cl [Tilorone] | 9.79 µM | > 100 µM | > 100 µM | 3.55 µM | 0.506
19 | O=C(Nc1ncc([N+](=O)[O-])s1)c1ccccc1O [Tizoxanide] | 44.2 µM | > 100 µM | > 100 µM | 29.5 µM | 0.736
20 | CN1CCN(CCCN2c3ccccc3Sc3ccc(C(F)(F)F)cc32)CC1.Cl.Cl [Trifluoperazine] | 4.13 µM | > 100 µM | 11.1 µM | 3.55 µM | 0.898
21 | N#CC(=C(/N)Sc1ccccc1N)/C(C#N)=C(\N)Sc1ccccc1N [U0126] | 11.5 µM | > 100 µM | 33.3 µM | 4.02 µM | 0.558
22 | S=C(N(C1=CC=CC=C1)C(/C2=C\C3=CC=C(C4=CC=CC=C4[N+]([O-])=O)O3)=O)N(C5=CC=CC=C5)C2=O [UCF 101] | 4.93 µM | > 100 µM | > 100 µM | 3.23 µM | 0.876
23 | CCOC(=O)c1c(CSc2ccccc2)n(C)c2cc(Br)c(O)c(CN(C)C)c12.Cl [Umifenovir] | 6.28 µM | > 100 µM | 3.7 µM | 3.37 µM | 0.791
24 | C[C@H]1[C@H](C)CC[C@]2(C(=O)O)CC[C@]3(C)C(=CC[C@@H]4[C@@]5(C)CC[C@H](O)C(C)(C)[C@@H]5CC[C@]43C)[C@H]12 [Ursolic acid] | 3.95 µM | > 100 µM | > 100 µM | 0.748 µM | 0.434
25 | CC(=O)c1c(O)c(C)c(O)c2c1OC1=CC(=O)C(C(C)=O)C(=O)C12C (stereo not given) [Usnic acid] | 1.77 µM | > 100 µM | 33.3 µM | 1.01 µM | 0.406
26 | C=CC(=O)N1CC/C(=C\c2ccc(F)c([N+](=O)[O-])c2)C(=O)/C(=C/c2ccc(F)c([N+](=O)[O-])c2)C1 [VLX1570] | 1.38 µM | > 100 µM | > 100 µM | 1.26 µM | 0.884
27 | C/C1=C/CC/C(C)=C/CC(C)(C)/C=C/C1=O [Zerumbone] | 9.91 µM | > 100 µM | 11.1 µM | 2.66 µM | 0.238
